# Assay results as given in patent publication US12398097B2, “WDR5-MYC inhibitors” (Vanderbilt University, priority 2019, dated 2025).
# pKi: −log10 of the molar value.
# Biological target: WDR5 (Homo sapiens, UniProt P61964)
# Test: Competition-based fluorescence polarization anisotropy assay
# Conditions: binding to WDR5; displacement of FITC-labeled small molecule probe (analogous to Example J2 or HCH-25) or peptide probe FITC-AHx-SEEEIDVVSV; pH 6.0; Ki converted from IC50
# Outline: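 Competition fluorescence polarization anisotropy binding to WDR5 using a FITC-labeled peptide probe or a fluorescently labeled small-molecule probe. Buffer: 200 mM phosphate, 300 mM NaCl, 0.5 mM TCEP, 0.1% Chaps, pH 6.0. Displacement data were converted to Ki.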
row,pKi,SMILES
1,6.82,"CC(NC(=O)c1cc(OC(F)(F)F)cc(NS(=O)(=O)c2cc(Br)cc(Cl)c2O)c1O)C(N)=O (stereo not drawn) [HCH-57, N-(1-Amino-1-oxopropan-2-yl)-3-((5-bromo-3-chloro-2-hydroxyphenyl)sulfonamido)-2-hydroxy-5-(trifluoromethoxy)benzamide]"
2,5.61,"COCCCNC(=O)c1cc(Cl)cc(NS(=O)(=O)c2cc(Br)ccc2OC)c1O [Example J51, 3-((5-Bromo-2-methoxyphenyl)sulfonamido)-5-chloro-2-hydroxy-N-(3-methoxypropyl)benzamide]"
3,7.70,"N#CC1(c2cc(NS(=O)(=O)c3cc(Br)cc(Cl)c3O)c(O)c(C(=O)O)c2)CCC1 [Example J206, 3-((S-Bromo-3-chloro-2-hydroxyphenyl)sulfonamido)-5-(1-cyanocyclobutyl)-2-hydroxybenzoic acid]"
4,6.31,"O=C(NCC1CCOC1)c1cc(Cl)cc(NS(=O)(=O)c2cc(Br)ccc2O)c1O (stereo not drawn) [Example J23, 3-((5-Bromo-2-hydroxyphenyl)sulfonamido)-5-chloro-2-hydroxy-N-((tetrahydrofuran-3-yl)methyl)benzamide]"
5,6.57,"NC(=O)c1cc(Cl)cc(NS(=O)(=O)c2cc(Br)cc(Cl)c2O)c1O [HCH-25, 3-((5-Bromo-3-chloro-2-hydroxyphenyl)sulfonamido)-5-chloro-2-hydroxybenzamide]"
6,5.65,"NC(=O)c1cc(F)cc(NS(=O)(=O)c2cc(Br)ccc2O)c1O [Example J108, 3-((5-Bromo-2-hydroxyphenyl)sulfonamido)-5-fluoro-2-hydroxybenzamide]"
7,6.85,"O=C(N[C@H]1CCOC1)c1cc(C2CC2)cc(NS(=O)(=O)c2cc(Br)cc(Cl)c2O)c1O [Example J97, (S)-3-((5-Bromo-3-chloro-2-hydroxyphenyl)sulfonamido)-5-cyclopropyl-2-hydroxy-N-(tetrahydrofuran-3-yl)benzamide]"
8,7.52,"O=C(O)c1cc(S(F)(F)(F)(F)F)cc(NS(=O)(=O)c2cc(Br)ccc2O)c1O [Example S65, 3-((5-Bromo-2-hydroxyphenyl)sulfonamido)-2-hydroxy-5-(pentafluoro-λ^6-sulfaneyl)benzoic acid]"
9,5.33,"COC[C@@H]1CCCN1C(=O)c1cc(Cl)cc(NS(=O)(=O)c2cc(Br)ccc2OC)c1O [Example J56, (S)-5-Bromo-N-(5-chloro-2-hydroxy-3-(2-(methoxymethyl)pyrrolidine-1-carbonyl)phenyl)-2-methoxybenzenesulfonamide]"
10,6.00,"COCCNC(=O)c1cc(Cl)cc(NS(=O)(=O)c2cc(Br)ccc2OC)c1O [Example J45, 3-((5-Bromo-2-methoxyphenyl)sulfonamido)-5-chloro-2-hydroxy-N-(2-methoxyethyl)benzamide]"
11,5.61,"O=C(NCCO)c1cc(Cl)cc(NS(=O)(=O)c2cc(Br)cc(Cl)c2O)c1O [Example J41, 3-((5-Bromo-3-chloro-2-hydroxyphenyl)sulfonamido)-5-chloro-2-hydroxy-N-(2-hydroxyethyl)benzamide]"
12,6.47,"CCc1cc(Br)cc(S(=O)(=O)Nc2cc(Cl)cc(C(=O)NC(C)C(N)=O)c2O)c1O (stereo not drawn) [HCH-59, N-(1-Amino-1-oxopropan-2-yl)-3-((5-bromo-3-ethyl-2-hydroxyphenyl)sulfonamido)-5-chloro-2-hydroxybenzamide]"
13,7.22,"O=C(O)c1cc(OC(F)(F)F)cc(NS(=O)(=O)c2cc(Br)ccc2O)c1O [Example J160, 3-((5-Bromo-2-hydroxyphenyl)sulfonamido)-2-hydroxy-5-(trifluoromethoxy)benzoic acid]"
14,5.45,"O=C(O)c1cc(Cl)cc(NS(=O)(=O)c2cc(Br)ccc2O)c1 [Example J66, 3-((5-Bromo-2-hydroxyphenyl)sulfonamido)-5-chlorobenzoic acid]"
15,6.11,"O=C(NC[C@@H]1CCCO1)c1cc(Cl)cc(NS(=O)(=O)c2cc(Br)ccc2O)c1O [Example J27, (S)-3-((5-Bromo-2-hydroxyphenyl)sulfonamido)-5-chloro-2-hydroxy-N-((tetrahydrofuran-2-yl)methyl)benzamide]"
16,6.37,"COC1CN(C(=O)c2cc(C3(C#N)CCC3)cc(NS(=O)(=O)c3cc(Br)ccc3O)c2O)C1 [Example J223, 5-Bromo-N-(5-(1-cyanocyclobutyl)-2-hydroxy-3-(3-methoxyazetidine-1-carbonyl)phenyl)-2-hydroxybenzenesulfonamide]"
17,6.77,"O=C(O)c1cc(OC(F)(F)F)cc(NS(=O)(=O)c2cc(Br)cc(OC(F)(F)F)c2O)c1O [HCH-15, 3-((5-Bromo-2-hydroxy-3-(trifluoromethoxy)phenyl)sulfonamido)-2-hydroxy-5-(trifluoromethoxy)benzoic acid]"
18,6.21,"CCc1cc(Br)cc(S(=O)(=O)Nc2cc(Cl)cc(S(C)(=O)=O)c2)c1O [Example S5, 5-Bromo-N-(3-chloro-5-(methylsulfonyl)phenyl)-3-ethyl-2-hydroxybenzenesulfonamide]"

row,pKi,SMILES
1,7.22,"O=C(O)c1cc(Cl)cc(NS(=O)(=O)c2cc(Br)cc(Cl)c2O)c1O [Example J4, 3-((5-Bromo-3-chloro-2-hydroxyphenyl)sulfonamido)-5-chloro-2-hydroxybenzoic acid]"
2,6.21,"COCCNC(=O)c1cc(C2CC2)cc(NS(=O)(=O)c2cc(Br)cc(Cl)c2O)c1O [Example J96, 3-((5-Bromo-3-chloro-2-hydroxyphenyl)sulfonamido)-5-cyclopropyl-2-hydroxy-N-(2-methoxyethyl)benzamide]"
3,5.57,"COc1ccc(Br)cc1S(=O)(=O)Nc1cc(Cl)cc(C(=O)NCCN)c1O [Example J61, N-(2-Aminoethyl)-3-((5-bromo-2-methoxyphenyl)sulfonamido)-5-chloro-2-hydroxybenzamide]"
4,5.20,"COCCN(C)C(=O)c1cc(C2CC2)cc(NS(=O)(=O)c2cc(Br)ccc2O)c1O [Example J83, 3-((5-Bromo-2-hydroxyphenyl)sulfonamido)-5-cyclopropyl-2-hydroxy-N-(2-methoxyethyl)-N-methylbenzamide]"
5,6.68,"CNC(=O)c1cc(NS(=O)(=O)c2cc(Br)cc(Cl)c2O)cc(C2CC2)c1F [Example J151, 5-((5-Bromo-3-chloro-2-hydroxyphenyl)sulfonamido)-3-cyclopropyl-2-fluoro-N-methylbenzamide]"
6,6.16,"CNC(=O)c1cc(NS(=O)(=O)c2cc(Br)ccc2O)cc(C2CC2)c1F [Example J135, 5-((5-Bromo-2-hydroxyphenyl)sulfonamido)-3-cyclopropyl-2-fluoro-N-methylbenzamide]"
7,5.40,"COC[C@@H]1CCCN1C(=O)c1cc(OC(F)(F)F)cc(NS(=O)(=O)c2cc(Br)ccc2OC)c1O [Example J180, (S)-5-Bromo-N-(2-hydroxy-3-(2-(methoxymethyl)pyrrolidine-1-carbonyl)-5-(trifluoromethoxy)phenyl)-2-methoxybenzenesulfonamide]"
8,4.13,"COc1ccc(Br)cc1S(=O)(=O)Nc1cc(Cl)cc(C(=O)N(C)C)c1O [Example J50, 3-((5-Bromo-2-methoxyphenyl)sulfonamido)-5-chloro-2-hydroxy-N,N-dimethylbenzamide]"
9,6.72,"NC(=O)[C@H](CO)NC(=O)c1cc(OC(F)(F)F)cc(NS(=O)(=O)c2cc(Br)cc(Cl)c2O)c1O [HCH-56, (S)—N-(1-Amino-3-hydroxy-1-oxopropan-2-yl)-3-((5-bromo-3-chloro-2-hydroxyphenyl)sulfonamido)-2-hydroxy-5-(trifluoromethoxy)benzamide]"
10,6.55,"CNC(=O)c1c(O)c(NS(=O)(=O)c2cc(Br)ccc2O)cc(C2CC2)c1F [Example J124, 3-((5-Bromo-2-hydroxyphenyl)sulfonamido)-5-cyclopropyl-6-fluoro-2-hydroxy-N-methylbenzamide]"
11,6.77,"CS(=O)(=O)c1cc(NS(=O)(=O)c2cc(Br)cc(Cl)c2O)cc(C2CC2)c1 [Example S10, 5-Bromo-3-chloro-N-(3-cyclopropyl-5-(methylsulfonyl)phenyl)-2-hydroxybenzenesulfonamide]"
12,4.91,"O=[N+]([O-])c1cc(Cl)cc(NS(=O)(=O)c2cc(Br)ccc2O)c1O [NE6, 5-Bromo-N-(5-chloro-2-hydroxy-3-nitrophenyl)-2-hydroxybenzenesulfonamide]"
13,6.36,"O=S(=O)(Nc1cc(Cl)cc(S(=O)(=O)NCC2CCCO2)c1O)c1cc(Br)cc(Cl)c1O (stereo not drawn) [Example S32, 5-Bromo-3-chloro-N-(5-chloro-2-hydroxy-3-(N-((tetrahydrofuran-2-yl)methyl)sulfamoyl)phenyl)-2-hydroxybenzenesulfonamide]"
14,6.54,"N#CC1(c2cc(NS(=O)(=O)c3cc(Br)ccc3O)c(O)c(C(=O)N3CC(O)C3)c2)CCC1 [Example J224, 5-Bromo-N-(5-(1-cyanocyclobutyl)-2-hydroxy-3-(3-hydroxyazetidine-1-carbonyl)phenyl)-2-hydroxybenzenesulfonamide]"
15,6.22,"CCc1cc(Br)cc(S(=O)(=O)Nc2cc(Cl)cc(C(=O)NCC3(O)CCN(C)CC3)c2O)c1O [HCH-2, 3-((5-Bromo-3-ethyl-2-hydroxyphenyl)sulfonamido)-5-chloro-2-hydroxy-N-((4-hydroxy-1-methylpiperidin-4-yl)methyl)benzamide]"
16,5.99,"COc1ccc(Br)cc1S(=O)(=O)Nc1cc(Cl)cc(C(=O)NCC2CCCO2)c1O (stereo not drawn) [Example J65, 3-((5-Bromo-2-methoxyphenyl)sulfonamido)-5-chloro-2-hydroxy-N-((tetrahydrofuran-2-yl)methyl)benzamide]"
17,6.37,"CC(O)(CNC(=O)c1cc(OC(F)(F)F)cc(NS(=O)(=O)c2cc(Br)ccc2O)c1O)C1CC1 (stereo not drawn) [HCH-44, 3-((5-Bromo-2-hydroxyphenyl)sulfonamido)-N-(2-cyclopropyl-2-hydroxypropyl)-2-hydroxy-5-(trifluoromethoxy)benzamide]"
18,6.07,"CS(=O)(=O)c1cc(Cl)cc(NS(=O)(=O)c2cc(Br)cc(OC(F)(F)F)c2O)c1 [Example S4, 5-Bromo-N-(3-chloro-5-(methylsulfonyl)phenyl)-2-hydroxy-3-(trifluoromethoxy)benzenesulfonamide]"
